This note sets out measurements from patent US20090143279A1 (priority 2007, published 2009).

Where a name gives a salt, the structure may show the parent alone. Read-outs that look alike come from different tables or passages of the source.

One experiment has as its system mtOXPHOS transcripts. The class given is cell-based, mouse.
A further experiment concerns OXPHOS gene expression. It is filed as cell-based, mouse.
The next experiment has as its system reactive oxygen species. The class given is cell-based, mouse.
A further experiment has as its system cytochrome c. It is filed as cell-based, mouse.
In experiment [1] the test system is cellular dehydrogenase activity.
The test system of the next experiment is nuOXPHOS transcripts. The class given is cell-based, mouse.
The subject of experiment [2] is mitochondrial membrane potential. The class given is cell-based, mouse.
Where [3] appears, read: composite Z-score vs DMSO, Conc 20 μM.
[4] abbreviates: normalized composite Z-score vs mock-treated (DMSO) wells, Conc 20 μM.
Where [5] appears, read: composite Z-score vs mock-treated (DMSO) wells, Conc 20 μM.
Where [6] appears, read: composite Z-score vs DMSO wells, Conc 20 μM.
Setting [7] is: Table 7, C2C12 myotubes, 48 h, composite Z-score.
The mark [8] stands for this setting: Table 3, differentiated C2C12 myotubes, 48 h treatment, composite Z-score vs DMSO.
The mark [9] stands for this setting: Table 5, C2C12 myotubes, 48 h, composite Z-score.
Setting [10] is: retest at 20 nM to 20 μM, FIG. 6a.

The compound `COc1cc(OC)c2c(=O)c(-c3ccccc3)coc2c1` [5,7-dimethoxyisoflavone] gave a mitoOX in the experiment on mtOXPHOS transcripts (setting [3]) of 0.773. The compound also returned a GE-HTS in the experiment with OXPHOS gene expression (setting [3]) of 0.945. The Viability with C2C12 myotubes (setting [3]) is reported as −0.298. The same compound gave an ROS in the experiment on reactive oxygen species (setting [3]) of 0.573. Besides, the cyt c in the experiment with cytochrome c (setting [3]) stood at 0.046. Also, in experiment [1] (setting [3]), the MTT is on record as −1.335. Besides, the nucOX with nuOXPHOS transcripts (setting [3]) is given as 0.916.

For the compound `C[C@H]1O[C@@H](n2cc(F)c(=O)[nH]c2=O)[C@H](O)[C@@H]1O` [5-fluoro-5′-deoxyuridine], the mitoOX in the experiment on mtOXPHOS transcripts (setting [3]) was −0.387. Moreover, the GE-HTS in the experiment on OXPHOS gene expression (setting [3]) is recorded as −0.336. Besides, the ROS with reactive oxygen species (setting [3]) was 0.337. The cyt c in the experiment on cytochrome c (setting [3]) is 0.338. In addition, in experiment [1] (setting [3]), the MTT is on record as −2.176. The nucOX in the experiment with nuOXPHOS transcripts (setting [3]) is listed as −0.284. For the same compound, the ΔΨm in experiment [2] (setting [3]) was −0.828.

`C=C1CCC=C(C)C(=O)CC2C(C)CC12` (stereo not shown) [15-norcaryophyllen-3-one] had a mitoOX with mtOXPHOS transcripts (setting [4]) of 0.137. Also, the GE-HTS in the experiment on OXPHOS gene expression (setting [4]) was −0.016. The Viability in the experiment with C2C12 myotubes (setting [4]) came to 0.557. Also, the ROS with reactive oxygen species (setting [4]) is listed as −0.667. In the experiment with cytochrome c (setting [4]), this compound came in with a cyt c of 0.656. Further, the nucOX with nuOXPHOS transcripts (setting [4]) is listed as −0.076. The same compound came in with a ΔΨm in experiment [2] (setting [4]) of 0.034.

As for `CC12CCC3c4ccc(OCc5ccccc5)cc4CCC3C1C[C@@H](O)[C@@H]2O` (stereo partly shown) [estriol benzyl ether], the “mitoOX (composite Z-score, mtDNA-encoded OXPHOS expression)” value in the experiment on mtOXPHOS transcripts was −0.574. Moreover, the “GE-HTS (composite Z-score, OXPHOS gene expression)” value in the experiment on OXPHOS gene expression is −0.114. Besides, the “Viability (composite Z-score vs DMSO mock-treated wells)” value with C2C12 myotubes is 0.551. For the same compound, the “ROS (composite Z-score vs DMSO mock-treated wells)” value in the experiment with reactive oxygen species is −0.504. Further, in experiment [1], the “MTT (composite Z-score vs DMSO mock-treated wells)” value was 2.975. In the experiment on nuOXPHOS transcripts, the “nucOX (composite Z-score, nuclear-encoded OXPHOS expression)” value turned out to be 0.122. In addition, in experiment [2], the “ΔΨm (composite Z-score vs DMSO mock-treated wells)” value was 3.459.

Take `CCOC(=O)c1c(C)cc(OC)cc1O` [ethyl everninate]: the mitoOX with mtOXPHOS transcripts (setting [3]) is −0.980. Also, in the experiment on OXPHOS gene expression (setting [3]), the GE-HTS is reported as −0.428. The same compound gave an ROS in the experiment with reactive oxygen species (setting [3]) of 0.125. Further, in the experiment on cytochrome c (setting [3]), the cyt c was 0.122. Besides, in experiment [1] (setting [3]), the MTT is recorded as −1.302. Also, in the experiment with nuOXPHOS transcripts (setting [3]), the nucOX is reported as −0.131. In experiment [2] (setting [3]), the ΔΨm is recorded as −0.860.

As to `COC(=O)C[C@H]1C(C)(C)[C@@H](OC(C)=O)[C@@H]2CC3=C4CC(=O)O[C@@H](c5ccoc5)[C@]4(C)CC[C@@H]3[C@@]1(C)C2=O` [fissinolide], the mitoOX in the experiment on mtOXPHOS transcripts (setting [5]) amounted to 0.777. Moreover, in the experiment with OXPHOS gene expression (setting [5]), the GE-HTS is 0.534. The compound also had a Viability with C2C12 myotubes (setting [5]) of 0.060. The compound further registered an ROS in the experiment on reactive oxygen species (setting [5]) of 0.475. Also, the cyt c with cytochrome c (setting [5]) is on record as −0.167. This compound returned a nucOX in the experiment with nuOXPHOS transcripts (setting [5]) of 0.385. Moreover, in experiment [2] (setting [5]), the ΔΨm is given as −0.324.

`CC[N+](CC)(CC)CCOc1cccc(OCC[N+](CC)(CC)CC)c1OCC[N+](CC)(CC)CC` [gallamine] yielded a mitoOX in the experiment with mtOXPHOS transcripts (setting [6]) of 0.843. Further, the GE-HTS in the experiment on OXPHOS gene expression (setting [6]) is 0.057. In the experiment with reactive oxygen species (setting [6]), this compound gave an ROS of 1.259. For the same compound, the cyt c in the experiment on cytochrome c is reported as 0.036; in the experiment with cytochrome c (setting [6]), −0.492. For the same compound, the MTT in experiment [1] (setting [6]) is recorded as −1.683. Moreover, the nucOX in the experiment on nuOXPHOS transcripts (setting [6]) was −0.292. For the same compound, the ΔΨm in experiment [2] (setting [6]) was −0.882.

Turning to `CC(=O)O[C@@H]1CC2C(C)(C)[C@H](O)C=C[C@]2(C)C2CC[C@@]3(C)[C@H](c4ccoc4)OC(=O)C4OC43[C@@]21C` (stereo partly shown) [gedunol], the mitoOX with mtOXPHOS transcripts (setting [5]) is reported as −1.174. Besides, the GE-HTS with OXPHOS gene expression (setting [5]) is listed as −1.545. In the experiment with C2C12 myotubes (setting [5]), this compound gave a Viability of 0.438. Further, in the experiment with reactive oxygen species (setting [5]), the ROS was determined as 0.132. Moreover, the MTT in experiment [1] (setting [5]) is on record as −1.248. Also, the nucOX with nuOXPHOS transcripts (setting [5]) is −1.561. The same compound displayed a ΔΨm in experiment [2] (setting [5]) of 0.897.

For `Cc1c(O)cc(O)c2c(=O)c(-c3ccc(O)cc3)coc12` [genistein, 8-methyl], the “mitoOX (composite Z-score)” value in the experiment on mtOXPHOS transcripts is reported as 0.023. Besides, in the experiment with OXPHOS gene expression, the “GE-HTS (composite Z-score)” value is 0.247. Also, the “Viability (composite Z-score)” value in the experiment on C2C12 myotubes is on record as −0.071. Further, the “ROS (composite Z-score)” value in the experiment with reactive oxygen species was found to be 1.016. For the same compound, the “MTT (composite Z-score)” value in experiment [1] was −1.035. In the experiment on nuOXPHOS transcripts, the “nucOX (composite Z-score)” value was 0.353. Also, in experiment [2], the “ΔΨm (composite Z-score)” value is −0.404.

Consider `CC(=O)O[C@@H]1CC2C(C)(C)C=CC(=O)[C@]2(C)C2CC[C@@]3(C)[C@H](c4ccoc4)OC(=O)C4OC43[C@@]21C` (stereo partly shown) [isogedunin], for which the mitoOX in the experiment with mtOXPHOS transcripts (setting [5]) was determined as 0.523. Besides, the GE-HTS in the experiment with OXPHOS gene expression (setting [5]) is on record as 0.805. This compound yielded a Viability in the experiment with C2C12 myotubes (setting [5]) of 0.404. In addition, in the experiment with cytochrome c (setting [5]), the cyt c worked out at 0.050. In experiment [1] (setting [5]), the MTT is on record as −1.716. Moreover, the nucOX with nuOXPHOS transcripts (setting [5]) was 0.883. In addition, in experiment [2] (setting [5]), the ΔΨm is on record as −0.489.

Consider `CON` [methoxyamine], for which the mitoOX in the experiment on mtOXPHOS transcripts (setting [6]) is listed as −1.494. In addition, the GE-HTS in the experiment on OXPHOS gene expression (setting [6]) is reported as −1.274. Further, the ROS with reactive oxygen species (setting [6]) turned out to be 0.751. In the experiment with cytochrome c (setting [6]), this compound yielded a cyt c of 0.749. In addition, in experiment [1] (setting [6]), the MTT is reported as −1.833. Besides, the nucOX in the experiment with nuOXPHOS transcripts (setting [6]) was −1.049. Also, the ΔΨm in experiment [2] (setting [6]) was −0.754.

Consider `Cc1cc(C(C)(C)CC(C)(C)C)ccc1OCCOCC[N+](C)(C)Cc1ccccc1` [methylbenzethonium], for which, in the experiment with mtOXPHOS transcripts, the mitoOX is on record as −1.043. Moreover, in the experiment on OXPHOS gene expression, the GE-HTS was −1.868. Besides, in the experiment with C2C12 myotubes, the Viability is −4.580. Moreover, in the experiment on reactive oxygen species, the ROS was −3.108. In experiment [1], the MTT was −5.614. In addition, the nucOX in the experiment with nuOXPHOS transcripts is −2.103. For the same compound, the ΔΨm in experiment [2] is listed as −4.202.

For the compound `NCCCCN` [putrescine], the mitoOX in the experiment on mtOXPHOS transcripts is −0.684. Moreover, the GE-HTS in the experiment on OXPHOS gene expression was −0.341. In the experiment on C2C12 myotubes, the Viability is reported as −0.586. For the same compound, the ROS in the experiment on reactive oxygen species was 0.279. Further, in the experiment on cytochrome c, the cyt c was 0.897. For the same compound, the MTT in experiment [1] was −0.806. In addition, the nucOX in the experiment with nuOXPHOS transcripts is listed as −0.160.

In turn, `O=C(O[C@@H]1Cc2c(O)cc(O)cc2O[C@@H]1c1cc(O)c(=O)c2c(O)c(O)cc([C@H]3Oc4cc(O)cc(O)c4C[C@H]3OC(=O)c3cc(O)c(O)c(O)c3)c2c1)c1cc(O)c(O)c(O)c1` [theaflavin digallate] gave a mitoOX in the experiment with mtOXPHOS transcripts of 0.275. This compound came in with a GE-HTS with OXPHOS gene expression of 0.783. Also, the Viability with C2C12 myotubes is given as −1.408. For the same compound, the ROS in the experiment on reactive oxygen species is given as 0.718. Also, the MTT in experiment [1] is reported as −0.518. In the experiment with nuOXPHOS transcripts, the nucOX came to 0.948. For the same compound, the ΔΨm in experiment [2] is listed as −0.326.

Regarding `CC[C@]1(O)C[C@@H]2CN(CCc3c([nH]c4ccccc34)[C@@](C(=O)OC)(c3cc4c(cc3OC)N(C)[C@H]3[C@@](O)(C(=O)OC)[C@H](OC(C)=O)[C@]5(CC)C=CCN6CC[C@]43[C@@H]65)C2)C1` [vinblastine sulfate, reference compound], the “mito-OXPHOS Z” value in the experiment with mtOXPHOS transcripts (setting [7]) is recorded as 1.64. Moreover, the GEHTS_Zscore in the experiment on OXPHOS gene expression (setting [8]) and in the experiment on OXPHOS gene expression (setting [9]) was 3.171 throughout. Further, the OXPHOS expression entry with OXPHOS gene expression (primary screen, in words) was “boost OXPHOS expression”. Besides, the “dose at which OXPHOS expression increased” value in the experiment on OXPHOS gene expression (setting [10]) is 2 µM. In addition, the “ROS Zscore” value with reactive oxygen species (setting [8]) and in the experiment with reactive oxygen species (setting [9]) was −1.327 in each case. The ROS levels result in the experiment on reactive oxygen species (primary screen, in words) is “suppressing ROS levels”. The “dose at which ROS levels decreased” value in the experiment on reactive oxygen species (setting [10]) is 2 µM. The cyt c in the experiment on cytochrome c (composite Z-score vs mock-treated (DMSO) wells, concentration of each compound in μM) is recorded as −1.078. In addition, the “nucOXPHOS Z” value with nuOXPHOS transcripts (setting [7]) is listed as 2.09.

On to cinnarazine, for which the “mitoOX (composite Z-score)” value with mtOXPHOS transcripts is listed as 0.349. Further, the “GE-HTS (composite Z-score)” value in the experiment on OXPHOS gene expression is reported as 0.362. For the same compound, in the experiment with C2C12 myotubes, the Viability turned out to be 0.752 and the “Viability (composite Z-score)” value was −0.692. Moreover, in the experiment with reactive oxygen species, the ROS worked out at 0.777 and the “ROS (composite Z-score)” value is recorded as 1.252. For the same compound, in experiment [1], the MTT is on record as −1.003 and the “MTT (composite Z-score)” value was −0.009. Further, the “nucOX (composite Z-score)” value in the experiment with nuOXPHOS transcripts turned out to be 0.338. Besides, in experiment [2], the ΔΨm is reported as 0.544 and the “ΔΨm (composite Z-score)” value was −0.711.
